Reference: article PMC4811417, “Sulforaphane Suppresses Hepatitis C Virus Replication by Up-Regulating Heme Oxygenase-1 Expression through PI3K/Nrf2 Pathway” (PLoS ONE, 2016)
Like-named read-outs stand apart in the source and are kept apart here.

Key:
[1] = system: JFH-1 virus particle-infected Huh-7 cells; assay: Combination of SFN with antiviral drugs in HCV-infected cells (CalcuSyn2, Chou and Talalay); format: cell-based, Hepatitis C virus; details: JFH-1-infected Huh-7 cells; for CI values at ED75 / CI values at ED90: fixed ratio, 3 days
Experimental: (§1) The anti-HCV activities of the different combinations were determined by qRT-PCR. The drug combination data were analyzed using CalcuSyn2™ software (Biosoft, Cambridge, UK) based on the method by Chou and Talalay. The multiple drug dose effects and combination index (CI) values were evaluated and presented as antagonism (CI > 1), additivity (CI = 1) or synergism (CI < 1).

[2] = system: HCV subgenomic replicon in Ava5 cells; assay: Combination of SFN with antiviral drugs in replicon cells (CalcuSyn2, Chou and Talalay); format: cell-based, Hepatitis C virus; details: for CI values at ED75 / CI values at ED90: fixed ratio, 3 days
Experimental: as §1

[3] = system: HCV subgenomic replicon (genotype 1b) in Ava5 cells; assay: Anti-HCV activity in HCV replicon (Ava5) cells, qRT-PCR / Western blotting; format: cell-based, Hepatitis C virus; details: for Selective Index (SI): CC50/EC50, Ava5 cells; for EC50: read-out: Anti-HCV activity (EC50)
Experimental: Huh-7, Huh7.5, Ava5 (harboring HCV subgenomic replicon; genotype 1b) and Huh7.5/J6/JFHEMCVIRESRlucNeo cells (harboring HCV subgenomic replicon RNA and renilla luciferase reporter gene; genotype 2a) obtained from Apath, LLC (St. Louis, MO) were routinely passaged in Dulbecco’s modified Eagle’s medium containing 10% heat-inactivated fetal bovine serum, 1% nonessential amino acids, and 1% antibiotic-antimycotic in a 37°C incubator with a humidified atmosphere containing 5% CO2. Sulforaphane (SFN), phenethyl isothiocyanate, benzyl isothiocyanate, benzyl isothiocyanate, butyl isothiocyanate, allyl isothiocyanate, and HO-1-specific inhibitor (tin protoporphyrin IX dichloride; SnPP) were obtained from Sigma Aldrich Co. (St. Louis, MO, USA). Biliverdin was obtained from MP Biomedicals, Inc (Santa Ana, CA, USA). […] Daclatasvir and telaprevir were obtained from Legend Stat International Co., Ltd (Omdurman, Sudan). Sofosbuvir was obtained from Shanghai Haoyuan Chemexpress Co., Ltd. (Shanghai, China). These compounds were stored at a concentration of 10 mM in 100% dimethyl sulfoxide (DMSO) at 4°C until use. All the reactions were performed using a final concentration of 0.1% DMSO.
(§2) Total cellular RNA extracted from cultured cells was purified using the Total RNA Miniprep Purification Kit (GMbiolab Co., Ltd, Taiwan). RNA samples were reverse transcribed into complementary DNA using the M-MLV Reverse Transcription System (Promega). Quantitative real-time polymerase chain reaction (qRT-PCR) was performed to assess the relative levels of gene expression using the ABI Step One Real-Time PCR-System (ABI Warrington, UK). Glyceraldehydes-3-phosphate dehydrogenase (gapdh) gene expression was used as the endogenous control for normalization in all qRT-PCR analyses. Relative expression was calculated using the comparative Ct method. Absolute quantitation of HCV RNA copies was calculated and determined relative to standard curves comprised of serial dilution of expression plasmids containing the coding sequence of HCV NS5B using RT-qPCR. The primer sequences primers for qRT-PCR were used as previously described (Table 1).
(§3) Western blotting was performed as previously described. Proteins from cell lysates were separated using SDS-PAGE and transferred onto PVDF membranes. The membranes were blocked with 5% nonfat milk in phosphate-buffered saline containing Tween 20 (PBST) and incubated overnight at 4°C with primary antibodies against GAPDH (1:10,000; GeneTex, CA, USA), NS5B (1:5,000; Abcam, Cambridge, MA, USA), Nrf2 (1:3,000; GeneTex), HO-1 (1:3,000; GeneTex), biliverdin reductase A (BVRA), Keap1 and Bach1 (1:1,000; Abcam), and total-phohphoinositide 3-kinase (PI3K) or phosphor-PI3K (1:1000; Cell Signaling Technology, Inc., Beverly, MA, USA). The immunoreactive blot signals were detected using the enhanced chemiluminescence Western blotting reagent (Perkin-Elmer, CT, USA).
To investigate the anti-HCV activity of SFN and its analogs (Fig 1A), Huh-7-derived Ava5 cells that harbor an HCV subgenomic RNA replicon were treated with increasing concentrations of SFN for 3 days. The anti-HCV activity and cytotoxicity of SFN and its analogs were analyzed by qRT-PCR and MTS assay, respectively. […] Moreover, the anti-HCV replication activity of SFN was analyzed by Western blotting and qRT-PCR.

[4] = Cell viability / cytotoxicity, MTS assay; format: cell-based; details: human; Ava5 cells, MTS assay; read-out: Cyto-Toxicity (CC50)
From the text: (§4) The CellTiter 96 Aqueous One Solution Cell Proliferation assay system (Promega, Madison, WI, USA), which is a colorimetric approach for the detection of the cytotoxic effect of a compound, was used to measure cell viability according to the manufacturer’s protocol. […] The absorbance values were detected at 490 nm using a 96-well plate reader (Bio-Rad, Hertfordshire, UK).

[5] = system: Ava5 cells; assay: Cell viability / cytotoxicity, MTS assay; format: cell-based; details: at doses where viral replication was inhibited
From the text: as §4

[6] = system: HCV JFH-1 (genotype 2a) in Huh-7 cells; details: JFH-1-infected Huh-7 cells, 3 days
Experimental: HCV infectious particles (JFH-1; genotype 2a) were produced as previously described. HCV infection assay was used to determine the antiviral effect of SFN. Huh-7 cells were seeded in 24-well plates at a density of 5 × 10^4 cells per well and were infected with HCV for 6 h at a multiplicity of infection (MOI) of 0.1. The HCV-infected cells were treated with different concentrations (0–10μM) of SFN and incubated for 3 days, following which total RNA samples were extracted and subjected to qRT-PCR analysis for the quantification of HCV replication.

[7] = system: HO-1; details: Ava5 cells, 0–10 μM, 3 days
Experimental: as §2
Western blotting was performed as previously described. Proteins from cell lysates were separated using SDS-PAGE and transferred onto PVDF membranes. […] The immunoreactive blot signals were detected using the enhanced chemiluminescence Western blotting reagent (Perkin-Elmer, CT, USA).

[8] = system: IFN response (IFN-α, ISRE, OAS1, OAS2, OAS3, PKR)
Experimental: as §2

[9] = system: PI3K; details: Ava5 cells, 7.5 μM SFN, 15 min after treatment
Experimental: as §3

[10] = system: HCV JFH-1 in Huh7.5 cells
Experimental: The effect of SFN on HCV entry was determined according to previously described methods [22]. Briefly, Huh7.5 cells were infected with JFH-1 and treated with SFN for 1 hour at 37°C (endocytosis/fusion period). Finally, cells were washed and incubated in complete culture medium at 37°C for 45 hours. Subsequently, the cells were collected to quantify intracellular HCV RNA copy numbers. The effect of SFN on assembly and secretion were determined according to previously described methods [23]. The Huh7.5 cells were infected with JFH-1 and treated with indicated concentration of SFN. The viral supernatants and cell pellets were collected at 3 days postinfection for virus titration by qRT-PCR.
(A) Huh7.5 cells were infected with JFH-1 and treated with SFN for 1 hr at 37°C and then the infectecells were washed and incubated in complete culture medium. The intracellular HCV RNA copy numbers were quantified by qRT-PCR. The treatment of heparin served as positive control for the inhibition of HCV entry. The relative HCV entry were presented as percentage changes compared to the SFN-untreated cells, which were considered as 100%. (B) Huh7.5 cells were infected with JFH-1 and then treated with SFN for 72 hrs. The supernatant and cell lysate were collected and the HCV RNA copy numbers were quantified by qRT-PCR.

[11] = biological target: HCV NS3/4A protease (Hepatitis C virus genotype 1b, UniProt Q9WMX2); details: Huh-7 cells, 0–10 μM, 3 days, compared to untreated controls; restored with SnPP
Experimental: The supernatants were harvested for measurement of SEAP activity by Phospha-Light assay kit (Tropix, Bedford, UK).
The culture supernatants were harvested and the SEAP activity was analyzed by Phospha-Light assay kit. Telaprevir (1 μM) and biliverdin (100 μM) served as positive controls for anti-HCV protease activity. The relative SEAP activities were presented as fold changes compared to untreated cells, in which as the activity was considered to be 1.

[12] = system: bilirubin / BVR; details: Ava5 cells, 3 days
Experimental: Intracellular bilirubin level was quantified as previously described [24]. Cells were seeded in 6-well plates at a density of 4 × 10^5 cells per well and treated with SFN at indicated concentrations for 3 days. Cell lysates were harvested and the amount of bilirubin was quantified using Calibrator for Automated Systems (c.f.a.s) (Roche Diagnostics Ltd., South San Francisco, CA, USA) and MeDiPro direct bilirubin test kit (Formosa Biomedical Technology Corp., Taipei, Taiwan). The absorbance values at 546 and 660 nm were measured using the Epoch microplate spectrophotometer (BioTek Instruments, Inc., Winooski, VT, USA).
The parental Huh-7 cells were used to determine basal bilirubin levels. […] Ava5 cells were treated with the indicated concentrations of SFN for 3 days. The expression of BVR was analyzed by qRT-PCR and Western blotting using specific primers and antibodies for BVR and GAPDH, respectively. GAPDH expression was used as protein loading control.

[13] = rats, oral dosing of 50 μmol of SFN, cited from earlier work
[14] = system: Nrf2/ARE; assay: ARE transactivation and Nrf2 expression in Ava5 cells (p3xARE-Luc, Western blotting)
[15] = Hepatitis C virus, 72 h, Ava5 cells, 3 days, HCV RNA levels by qRT-PCR

HCV NS3/4A protease, sequence (Q9WMX2 1027-1657): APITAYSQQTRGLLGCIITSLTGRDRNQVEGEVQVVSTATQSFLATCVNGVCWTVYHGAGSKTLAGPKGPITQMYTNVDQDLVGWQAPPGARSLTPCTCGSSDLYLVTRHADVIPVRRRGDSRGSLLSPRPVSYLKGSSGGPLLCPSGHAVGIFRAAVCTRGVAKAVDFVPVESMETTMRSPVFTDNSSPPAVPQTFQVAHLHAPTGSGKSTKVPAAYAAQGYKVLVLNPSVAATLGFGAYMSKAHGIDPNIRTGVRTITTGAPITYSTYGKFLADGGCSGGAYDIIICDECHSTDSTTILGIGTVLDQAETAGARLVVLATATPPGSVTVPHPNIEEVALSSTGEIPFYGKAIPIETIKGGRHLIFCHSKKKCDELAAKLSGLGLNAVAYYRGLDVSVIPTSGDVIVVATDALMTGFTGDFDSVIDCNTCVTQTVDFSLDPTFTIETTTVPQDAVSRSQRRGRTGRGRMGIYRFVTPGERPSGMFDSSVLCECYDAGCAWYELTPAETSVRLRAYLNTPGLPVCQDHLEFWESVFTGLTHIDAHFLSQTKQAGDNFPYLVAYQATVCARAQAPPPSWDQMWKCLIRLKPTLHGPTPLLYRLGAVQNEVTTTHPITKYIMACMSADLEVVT
HCV NS3/4A protease, sequence (Q9WMX2 1658-1711): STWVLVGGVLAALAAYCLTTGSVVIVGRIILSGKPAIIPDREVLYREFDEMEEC

In the case of CC(C)OC(=O)[C@H](C)N[P@](=O)(OC[C@H]1O[C@@H](n2ccc(=O)[nH]c2=O)[C@](C)(F)[C@@H]1O)Oc1ccccc1 [Sofobuvir, sofosbuvir], the Influence [1] is reported as “Synergistic”, the “CI values at ED75” value [1] is reported as 0.5 and the “CI values at ED90” value [1] is reported as 0.4. For the same molecule, the Influence [2] was “Synergistic”, the “CI values at ED75” value [2] was 0.5 and the “CI values at ED90” value [2] was 0.4.
For C[S+]([O-])CCCCN=C=S (stereo not shown) [Sulforaphane], the “inhibition of viral replication” value ([3]; 10 μM SFN, Ava5 cells, 3 days, compared to SFN-untreated cells) was 90%, the “HCV protein synthesis and RNA replication” value ([3]; Ava5 cells, 0–10 μM, 3 days, concentration-dependent) was “significantly reduced” and the “Selective Index (SI)” value [3] was roughly 10. For the same molecule, the EC50 ([3]; Hepatitis C virus, Ava5, 72 h) was 5 ± 1.5 µM, the IC50 ([3]; Hepatitis C virus, Ava5, HCV replicon cells and infectious system, read-out: IC50 value, suppression of HCV protein and RNA levels) was 5.7 ± 0.2 µM and the CC50 at 3 days [4] was 52 ± 3 µM. The “cytotoxicity (cell viability by MTS assay)” value [5] was “did not induce significant cytotoxicity”, the “antiviral activity in the HCV JFH-1 infection system” value [6] was “exhibited antiviral activity” and the “HO-1 RNA and protein levels” value [7] was “significantly increased”. The “IFN-α2 and IFN-α17 expression” value ([8]; Ava5 cells, 3 days, qRT-PCR, attenuated with SnPP) was “significantly induced”, the “IFN-α levels in culture supernatants” value ([8]; Ava5 cells, ELISA, effective antiviral concentrations, attenuated by SnPP) was “significantly increased” and the “expression of IFN response genes (OAS1, OAS2, OAS3, PKR)” value ([8]; Ava5 cells, qRT-PCR, attenuated by SnPP) was “significantly induced”. For the same molecule, the ISRE-mediated luciferase activity ([8]; pISRE-Luc-transfected Ava5 cells, 3 days, attenuated with SnPP) was “significant induction”, the “phosphorylation of PI3K” value [9] was “significantly induced” and the “inhibition on viral entry” value ([10]; Huh7.5 cells infected with JFH-1, SFN 1 hour) was “no significant inhibition”. For the same molecule, the “inhibition on viral assembly” value ([10]; Huh7.5 cells infected with JFH-1, SFN 3 days) was “no significant inhibition”, the “HCV protease activity (SEAP)” value [11] was “significantly decreased” and the bilirubin levels ([12]; 0–10 μM) was “significant increase”. The “BVR RNA or protein levels” value [12] was “did not detect any significant changes”, the plasma concentration ([13]; reached within 4h) was “around 20 μM” and the elimination half-life [13] was 2.2 h. For the same molecule, the “time at which plasma concentration of SFN occurred” value [13] was 1 h, the “protein levels of Keap1 and Bach1” value ([14]; Ava5 cells) was “did not observe significant changes” and the “expression of Nrf2 in cytoplasmic and nuclear fractions” value ([14]; Ava5 cells, concentration-dependent) was “significant increase”. For the same molecule, the ARE-mediated luciferase activity ([14]; p3xARE-Luc-transfected Ava5 cells, 3 days, effective antiviral concentrations) was “significantly increased”.
With S=C=NCc1ccccc1 [Benzyl isothiocyanate, benzyl isothiocyanate] the “Selective Index (SI)” value [3] was 3, the EC50 [3, 15] was 20 ± 2 µM and the CC50 at 3 days [4] was 67 ± 2 µM.
For C=CCN=C=S [Allyl isothiocyanate, allyl isothiocyanate], the “Selective Index (SI)” value [3] was 1.5, the EC50 [3, 15] was 20 ± 2 µM and the CC50 at 3 days [4] was 33 ± 3 µM.
In the case of COC(=O)N[C@H](C(=O)N1CCC[C@H]1c1nc(-c2ccc(-c3ccc(-c4c[nH]c([C@@H]5CCCN5C(=O)[C@@H](NC(=O)OC)C(C)C)n4)cc3)cc2)c[nH]1)C(C)C [Daclatasvir], the Influence [1] is reported as “Synergistic”, the “CI values at ED75” value [1] is reported as 0.5 and the “CI values at ED90” value [1] is reported as 0.4. For the same molecule, the Influence [2] was “Synergistic”, the “CI values at ED75” value [2] was 0.5 and the “CI values at ED90” value [2] was 0.4.
S=C=NCCc1ccccc1 [Phenethyl isothiocyanate, phenethyl isothiocyanate] gave an EC50 ([3]; Hepatitis C virus, Ava5, 72 h) of 2.5 ± 0.5 µM and a CC50 at 3 days [4] of 10 ± 1.5 µM.
With CCCCN=C=S [Butyl isothiocyanate, butyl isothiocyanate] the CC50 at 3 days [4] was 95 ± 6 µM.
With CCC[C@H](NC(=O)[C@@H]1[C@H]2CCC[C@H]2CN1C(=O)[C@@H](NC(=O)[C@@H](NC(=O)c1cnccn1)C1CCCCC1)C(C)(C)C)C(=O)C(=O)NC1CC1 [Telapriver, telaprevir] the Influence [1] was “Synergistic”, the “CI values at ED75” value [1] was 0.6 and the “CI values at ED90” value [1] was 0.5. The Influence [2] was “Synergistic”, the “CI values at ED75” value [2] was 0.7 and the “CI values at ED90” value [2] was 0.6.
